# Experimental data from patent US8492310B2, “Herbicidal compositions containing benzoylpyrazole compounds” (priority 2008, dated 2013).
# Where two headings read alike, the source gives them in different places.
# What was measured:
# Assay type in all cases: in vivo
# [1] = tested on: velvetleaf (Abutilon theophrasti MEDIC.); test: Foliar treatment pot test, visual growth inhibition rate, velvetleaf (AT); settings: Abutilon theophrasti, foliar
# From the text: (§1) When the herbicidal activity in a case where two active ingredients are combined, is larger than the simple sum of the respective herbicidal activities of the two active ingredients (the expected activity), it is called a synergistic effect. The activity expected by the combination of two active ingredients can be calculated as follows (Colby S. R., “Weed”, vol. 15, p. 20-22, 1967). E=α+β−(α×β÷100) where
# (§2) Upland field soil was put into a 1/1,000,000 hectare pot, and seeds of various plants (barnyardgrass (Echinochloa crus-qalli L.), crabgrass (Digitaria sanguinalis L.), giant foxtail (Setaria faberi Herrm.), velvetleaf (Abutilon theophrasti MEDIC.) and prickly sida (Sida spinosa L.)) were sown. When the respective plants reached predetermined leaf stage, herbicidal compositions in predetermined amounts were diluted with water in an amount corresponding to 300 L/ha and applied for foliar treatment by a small sprayer.
# (§3) Further, in accordance with the above Colby's formula, the growth inhibition rate (calculated value) was calculated. In Tables, with respect to the compound Q, Compound Nos. in Table 1 are described, and with respect to other herbicidal compounds, common names are described. Further, in Tables, barnyardgrass is represented by “EC”, crabgrass by “DS”, giant foxtail by “SF”, velvetleaf by “AT”, and prickly sida by “SS”.
# [2] = tested on: crabgrass (Digitaria sanguinalis L.); test: Foliar treatment pot test, visual growth inhibition rate, crabgrass (DS); settings: Digitaria sanguinalis, foliar; for inhibition at […]: 2.5 g/ha
# From the text: as §1, §2, §3
# [3] = tested on: prickly sida (Sida spinosa L.); test: Foliar treatment pot test, visual growth inhibition rate, prickly sida (SS); settings: Sida spinosa, foliar, 336 h, 3.0-3.3 leaf stage, 14 DAT, read-out: Growth inhibition rate (%) of SS Measured value
# From the text: as §1, §2, §3
# [4] = 504 h, 4.0-5.1 leaf stage, 21 DAT, read-out: Growth inhibition rate (%) of DS Measured value
# [5] = 504 h, 3.0-3.5 leaf stage, 21 DAT, read-out: Growth inhibition rate (%) of AT Measured value
# [6] = 528 h, 4.5-5.0 leaf stage, 22 DAT, read-out: Growth inhibition rate (%) of AT Measured value
smiles,measurement,setting,value
"CCOCN(C(=O)CCl)c1c(C)cccc1CC [Acetochlor, acetochlor]",inhibition at 63 g/ha,"[1]; 168 h, 2.3-3.5 leaf stage, 7 DAT, 63 g/ha, read-out: Growth inhibition rate (%) of AT Measured value",0%
same,inhibition at 125 g/ha,"[1]; 168 h, 2.3-3.5 leaf stage, 7 DAT, 125 g/ha, read-out: Growth inhibition rate (%) of AT Measured value",0%
same,inhibition at 250 g/ha,"[1]; 168 h, 2.3-3.5 leaf stage, 7 DAT, 250 g/ha, read-out: Growth inhibition rate (%) of AT Measured value",0%
same,inhibition at 500 g/ha,"[1]; 168 h, 2.3-3.5 leaf stage, 7 DAT, 500 g/ha, read-out: Growth inhibition rate (%) of AT Measured value",10%
same,inhibition at 750 g/ha,"[1]; 168 h, 2.3-3.5 leaf stage, 7 DAT, 750 g/ha, read-out: Growth inhibition rate (%) of AT Measured value",0%
same,inhibition at 150 g/ha,"[1]; 336 h, 3.0-4.0 leaf stage, 14 DAT, 150 g/ha, read-out: Growth inhibition rate (%) of AT Measured value",0%
same,inhibition at 300 g/ha,"[1]; 480 h, 3.1-3.4 leaf stage, 20 DAT, 300 g/ha, read-out: Growth inhibition rate (%) of AT Measured value",0%
same,inhibition at 400 g/ha,"[1]; 504 h, 3.0-3.8 leaf stage, 21 DAT, 400 g/ha, read-out: Growth inhibition rate (%) of AT Measured value",0%
same,inhibition at 63 g/ha,"[2]; 168 h, 3.5-5.0 leaf stage, 7 DAT, 63 g/ha, read-out: Growth inhibition rate (%) of DS Measured value",0%
same,inhibition at 125 g/ha,"[2]; 168 h, 3.5-5.0 leaf stage, 7 DAT, 125 g/ha, read-out: Growth inhibition rate (%) of DS Measured value",0%
same,inhibition at 250 g/ha,"[2]; 168 h, 3.5-5.0 leaf stage, 7 DAT, 250 g/ha, read-out: Growth inhibition rate (%) of DS Measured value",0%
same,inhibition at 500 g/ha,"[2]; 168 h, 3.5-5.0 leaf stage, 7 DAT, 500 g/ha, read-out: Growth inhibition rate (%) of DS Measured value",0%
same,inhibition at 750 g/ha,"[2]; 168 h, 3.5-5.0 leaf stage, 7 DAT, 750 g/ha, read-out: Growth inhibition rate (%) of DS Measured value",10%
same,inhibition at 150 g/ha,"[2]; 336 h, 4.0-5.0 leaf stage, 14 DAT, read-out: Growth inhibition rate (%) of DS Measured value",0%
same,inhibition at 400 g/ha,"[2]; 504 h, 3.5-4.3 leaf stage, 21 DAT, 400 g/ha, read-out: Growth inhibition rate (%) of DS Measured value",0%
same,inhibition at 150 g/ha,[2]; [4],0%
same,inhibition at 100 g/ha,[3]; 100 g/ha,0%
same,inhibition at 200 g/ha,[3]; 200 g/ha,0%
same,inhibition at 400 g/ha,[3]; 400 g/ha,10%
same,inhibition at 800 g/ha,[3]; 800 g/ha,30%
"COc1nc(C)nc(NC(=O)NS(=O)(=O)c2ccccc2CCC(F)(F)F)n1 [Prosulfuron, prosulfuron]",inhibition at 10 g/ha,[1]; [5],100%
same,inhibition at 1.25 g/ha,"[1]; 504 h, 4.0-4.3 leaf stage, 21 DAT, 1.25 g/ha, read-out: Growth inhibition rate (%) of AT Measured value",50%
same,inhibition at 5 g/ha,"[1]; 504 h, 4.0-4.3 leaf stage, 21 DAT, read-out: Growth inhibition rate (%) of AT Measured value",95%
same,inhibition at 5 g/ha,"[1]; 528 h, 4.1-4.5 leaf stage, 22 DAT, read-out: Growth inhibition rate (%) of AT Measured value",90%
same,inhibition at 5 g/ha,[1]; [6],0%
same,inhibition at 10 g/ha,[1]; [6],0%
same,inhibition at 1.25 g/ha,"[2]; 504 h, 4.0-5.1 leaf stage, 21 DAT, 1.25 g/ha, read-out: Growth inhibition rate (%) of DS Measured value",10%
same,inhibition at […],[2]; [4],5%
same,inhibition at 5 g/ha,[2]; [4],0%
same,inhibition at 5 g/ha,"[2]; 528 h, 4.0-5.0 leaf stage, 22 DAT, read-out: Growth inhibition rate (%) of DS Measured value",0%
same,inhibition at […],"[2]; 528 h, 4.8-5.5 leaf stage, 22 DAT, read-out: Growth inhibition rate (%) of DS Measured value",0%
same,inhibition at 10 g/ha,"[2]; 552 h, 4.0-5.1 leaf stage, 23 DAT, 10 g/ha, read-out: Growth inhibition rate (%) of DS Measured value",0%
"Cn1nc(C(F)(F)F)c(CS(=O)(=O)C2=NOC(C)(C)C2)c1OC(F)F [Pyroxasulfone, pyroxasulfone]",inhibition at 50 g/ha,"[1]; 312 h, 3.3-4.2 leaf stage, 13 DAT, read-out: Growth inhibition rate (%) of AT Measured value",5%
same,inhibition at 50 g/ha,"[1]; 336 h, 3.0-4.0 leaf stage, 14 DAT, read-out: Growth inhibition rate (%) of AT Measured value",0%
same,inhibition at 50 g/ha,[1]; [5],0%
same,inhibition at 50 g/ha,"[2]; 312 h, 4.4-5.0 leaf stage, 13 DAT, 50 g/ha, read-out: Growth inhibition rate (%) of DS Measured value",0%
same,inhibition at 100 g/ha,"[2]; 336 h, 4.0-5.0 leaf stage, 14 DAT, 100 g/ha, read-out: Growth inhibition rate (%) of DS Measured value",5%
same,inhibition at 50 g/ha,"[2]; 504 h, 4.0-5.0 leaf stage, 21 DAT, 50 g/ha, read-out: Growth inhibition rate (%) of DS Measured value",10%
"CCS(=O)(=O)c1cccnc1S(=O)(=O)NC(=O)Nc1nc(OC)cc(OC)n1 [Rimsulfuron, rimsulfuron]",inhibition at 20 g/ha,"[1]; 504 h, 3.5-4.3 leaf stage, 21 DAT, 20 g/ha, read-out: Growth inhibition rate (%) of AT Measured value",99%
same,inhibition at 15 g/ha,"[1]; 552 h, 3.0-3.5 leaf stage, 23 DAT, 15 g/ha, read-out: Growth inhibition rate (%) of AT Measured value",70%
same,inhibition at 15 g/ha,"[2]; 552 h, 4.0-5.1 leaf stage, 23 DAT, 15 g/ha, read-out: Growth inhibition rate (%) of DS Measured value",98%
CS(=O)(=O)c1ccc(C(=O)C2C(=O)CCCC2=O)c(Cl)c1 [Sulcotrione],inhibition at 31 g/ha,"[1]; 576 h, read-out: Growth inhibition rate (%) of AT Measured value, 3.2-4.1 leaf stage, 24 DAT, 31 g/ha",60%
same,inhibition at 25 g/ha,"[2]; 480 h, read-out: Growth inhibition rate (%) of DS Measured value, 3.7-4.0 leaf stage, 20 DAT, 25 g/ha",45%
same,inhibition at 50 g/ha,"[2]; 480 h, read-out: Growth inhibition rate (%) of DS Measured value, 3.7-4.0 leaf stage, 20 DAT, 50 g/ha",60%
same,inhibition at 100 g/ha,"[2]; 480 h, read-out: Growth inhibition rate (%) of DS Measured value, 3.7-4.0 leaf stage, 20 DAT, 100 g/ha",80%
same,inhibition at 50 g/ha,"[2]; 480 h, read-out: Growth inhibition rate (%) of DS Measured value, 5.1-5.2 leaf stage, 20 DAT, 50 g/ha",60%
same,inhibition at 100 g/ha,"[2]; 480 h, read-out: Growth inhibition rate (%) of DS Measured value, 5.1-5.2 leaf stage, 20 DAT, 100 g/ha",95%
